Read-outs that look alike come from different tables or passages of the source.
What was measured:
[1] = system: Human ovarian cancer cell line SKOV3; details: 24 h
Description: (§1) Serial dilutions were prepared in cell culture media (Dulbecco's Modified Eagle Medium/Nutrient Mixture F-12 (DMEM/F-12)) supplemented with 10% v/v Fetal Bovine Serum, 100 U/mL penicillin, 100 μg/mL streptomycin and the same excipient solution at a constant 1:55 dilution.
(§2) Human ovarian cancer cell line SKOV3 (ATCC #HTB-77) was maintained in Dulbecco's Modified Eagle Medium/Nutrient Mixture F-12 (DMEM/F-12), supplemented with 10% v/v Fetal Bovine Serum, 100 U/mL penicillin and 100 μg/mL streptomycin. Monolayer cultures were grown in a humidified incubator at 37° C. with 5% CO2. Once cells had reached ˜80% confluence, spent media was replaced with media containing photosensitizer at the required concentration and cells were incubated for the desired period of time to allow photosensitizer uptake.
(§3) Spectral absorbance and viability measurements were normalized in the range 0-100%, with a minimum of 0 and a maximum value determined from the dataset. Dose response was determined using a sigmoidal four-point non-linear regression with variable slope, and IC10 or IC90 calculated for each compound. All data are shown as mean±SD (where appropriate).
(§4) On reaching ˜60% confluence, media was aspirated and replaced with fresh media containing the relevant phyllochlorin analogue from 0-100 μM in DMSO.
(§5) Untreated cells were used as a control. […] All measurements were made in quadruplicate.
(§6) The phototoxicity and inherent cytotoxicity (i.e. “dark toxicity”) of phyllochlorin analogues were assessed as previously using SKOV3 ovarian cancer cells. For comparative purposes, phyllochlorin analogues were compared against chlorin e4 disodium and Talaporfin sodium, a clinically approved photosensitizer used in the photodynamic treatment of lung cancers.

[2] = system: SKOV3 ovarian cancer cells; details: human, 5 μM
Description: SKOV3 cells were seeded in 96-well black wall plates (Greiner #655090) at a cell density of 5000 cells in 100 μl culture medium per well. […] Cells were incubated for up to 18 hours. At time periods of 10 min, 20 min, 30 min, 60 min, 2 hrs, 4 hrs and 18 hrs, media was removed and the cells lysed in 100 μl of lysis buffer (PBS+1% SDS+1% PVP+Benzonase Nuclease 500 units/mL). Each sample was snap-frozen on dry ice until use.
Eight point standard curves using compound 1 or chlorin e4 disodium were constructed in the range 0-10 μM using serial dilutions in lysis buffer. Cell lysates (100 μl) were thawed, centrifuged at room temperature (21,000 g, 10 mins) and the supernatants transferred to fresh tubes. 100 μl of each supernatant was added neat to 96-well microplates and absorbance measured at 405 nm using a Cytation 3 multimode plate reader. All wells were measured against blank wells containing buffer alone, and a background value measured using untreated cells was subtracted from all samples. The concentration of each chlorin species was determined against the appropriate standard curve in each case.
Chlorin e4 disodium (which enters cells via a passive diffusion process) was included as a comparator, and untreated cells were used as a control. Cells were harvested at time periods from 10 mins to 18 hours post addition of photosensitizers, cells were lysed and the supernatants measured for uptake of photosensitizers against an appropriate standard curve.

E coli DH5α cells = assay: Photosensitizer uptake into bacterial cells (absorbance spectra of lysates); assay type: cell-based; details: 50 μM, incubated overnight
Description: E coli DH5α cells were inoculated into LB media and incubated overnight (shaking at 37° C.) in the presence of 50 μM compound 1 or chlorin e4 disodium. Untreated cells acted as the control. The following day cells were harvested by centrifugation (5000 g, 10 mins, room temperature) and lysed by addition of PBS+1% SDS (w/v)+1% PVP-17 (w/v). Insoluble material was pelleted by centrifugation at 21,000 g (10 mins, bench top centrifuge) and the supernatant transferred to a fresh tube. A 100 μl aliquot was added to clear 96-well microtitre plates and absorbance spectra measured between 600-700 nm (Cytation 3 multimode plate reader). The optical density (OD) was plotted against wavelength in each case to determine uptake of photosensitizer into cells.

[3] = Determination of solubility of phyllochlorin analogues (absorbance maxima as surrogate measure); assay type: physicochemical
Description: Absorbance maxima were used as a surrogate measure of solubility. The relevant phyllochlorin analogue was diluted to 50 μM in PBS (phosphate buffered saline) solutions containing decreasing amounts of DMSO from 100% to 0%.
Where required, polyvinylpyrrolidone (K30) was added to a final concentration of 1% w/v. Absorbance was measured using a Cytation 3 Multimode Plate Reader (Biotek) in spectral scanning mode, with spectra captured between 500-800 nm in 2 nm increments. Equivalent blank solutions were also measured and subtracted accordingly. Each spectrum was normalized to have a minimum signal of 0, and a maximum signal in pure DMSO solution (the most soluble state) of 100%.
The solubility of compound 1 was assessed in solutions containing DMSO as an organic solvent. Compound 1 (50 μM final concentration) was resuspended in 100% DMSO to fully dissolve compound 1, in the presence or absence of 1% PVP (w/v). With concentrations of compound 1 maintained at 50 μM the % DMSO was decreased in a stepwise manner from 100% to 0%. All solutions were mixed by vortexing, then centrifuged for 2 mins to pellet any insoluble material. A 150 μl aliquot was transferred to individual wells of a 96-well clear microplate, and absorbance spectra collected between 500-800 nm in 2 nm increments. Equivalent solutions containing decreasing % DMSO were used to control for background.

[4] = system: Human ovarian cancer cell line SKOV3; assay: Phototoxicity in SKOV3 cells (660 nm laser or LED, AlamarBlue viability); assay type: cell-based; details: for IC90: SKOV3, 24 h uptake, viability 24 h later
Text: All data are shown as mean±SD (where appropriate).
Media was then replaced with fresh media containing AlamarBlue, and % viable cells remaining assessed as above. […] All measurements were made in quadruplicate.

[5] = system: Human ovarian cancer cell line SKOV3; assay: Inherent cytotoxicity (dark toxicity) in SKOV3 cells (AlamarBlue viability); details: SKOV3, 24 h incubation, no light activation
Description: as §1, §2, §3, §4, §5, §6

[6] = Homo sapiens, SK-OV-3, light or radiation study, 660 nm laser 50 mW/cm^2 for 5 mins (15 J/cm^2), read-out: Phototoxicity μM (IC90)
[7] = Homo sapiens, SK-OV-3, light or radiation study, 660 nm LED panel 50 mW/cm^2 for 5 mins (15 J/cm^2), read-out: Phototoxicity μM (IC90), measured by LED

CCC1=C(C)c2cc3[nH]c(cc4nc(c(C)c5cc(C)c(cc1n2)[nH]5)[C@@H](CCC(=O)OC)[C@@H]4C)c(C)c3C(C)OCCCS[C@@H]1O[C@H](CO)[C@@H](O)[C@H](O)[C@H]1O (stereo partly drawn) [Compound 1, methyl 3-((7S,8S)-18-ethyl-2,5,8,12,17-pentamethyl-13-(1-(3-(((2S,3R,4S,5S,6R)-3,4,5-trihydroxy-6-(hydroxymethyl)tetrahydro-2H-pyran-2-yl)thio)propoxy)ethyl)-7H,8H-porphyrin-7-yl) propanoate]
Dark toxicity μM (IC10) [1]: 13.500 µM
observed in cells (time of incubation) [2]: ≤ 10 min
rate of uptake [2]: substantially faster than that of chlorin e4 disodium
time the rate of uptake was maintained after addition of photosensitizer [2]: 2 to 4 h
detection in bacterial lysates (E coli DH5α cells): clearly detectible
apparent solubility ([3]; 50 μM, DMSO concentrations below 40%): ~45%
solubility ([3]; 50 μM, concentrations above 70% DMSO): completely soluble
solubility in aqueous solution ([3]; 50 μM, no DMSO, addition of PVP 1%): ~75 % of maximal
absorbance maxima ([3]; in the presence of 1% PVP (w/v)): 650±2 nm
IC90 [4, 6]: 0.06 µM

CCC1=C(C)c2cc3[nH]c(cc4nc(c(C)c5cc(C)c(cc1n2)[nH]5)[C@@H](CCC(=O)O)[C@@H]4C)c(C)c3C(C)O (stereo partly drawn) [Compound 27, phyllochlorin 13-(ethyl-1-alcohol)]
Dark toxicity μM (IC10) [1]: 10.520 µM
IC90 [4, 6]: 0.397 µM

CCC1=C(C)c2cc3[nH]c(cc4nc(c(C)c5cc(C)c(cc1n2)[nH]5)[C@@H](CCC(=O)OC)[C@@H]4C)c(C)c3C(C)OCCC[n+]1ccc(C)cc1 (stereo partly drawn) [Compound 28]
Dark toxicity μM (IC10) [1]: 4.877 µM
IC90 [4, 6]: 0.003 µM

CCC1=C(C)c2cc3[nH]c(cc4nc(c(C)c5cc(C)c(cc1n2)[nH]5)[C@@H](CCC(=O)OC)[C@@H]4C)c(C)c3COC(=O)NCCOC [Compound 29, phyllochlorin methyl ester 13-(2-methoxyethyl)carbamate]
Dark toxicity μM (IC10) [1]: 30.000 µM
IC90 [4, 7]: 0.0867 µM

CCC1=C(C)c2cc3[nH]c(cc4nc(c(C)c5cc(C)c(cc1n2)[nH]5)[C@@H](CCC(=O)OC)[C@@H]4C)c(C)c3C=O [Compound 30, phyllochlorin 13-formyl methyl ester]
Dark toxicity μM (IC10) [1]: 45.760 µM
IC90 [4, 6]: 2.27 µM

CCC1=C(C)c2cc3[nH]c(cc4nc(c(C)c5cc(C)c(cc1n2)[nH]5)[C@@H](CCCO)[C@@H]4C)c(C)c3CO [Compound 32, phyllochlorin 13-hydroxymethyl-3-hydroxypropyl]
Dark toxicity μM (IC10) [1]: 30.850 µM
IC90 [4, 6]: 0.0724 µM

CCC1=C(C)c2cc3[nH]c(cc4nc(c(C)c5cc(C)c(cc1n2)[nH]5)[C@@H](CCCO[C@@H]1O[C@H](CO)[C@@H](O)[C@H](O)[C@H]1O)[C@@H]4C)c(C)c3CO[C@@H]1O[C@H](CO)[C@@H](O)[C@H](O)[C@H]1O [Compound 33, phyllochlorin 13-hydroxymethyl-3-hydroxypropyl-bis-β-D-glucoside ether]
Dark toxicity μM (IC10) [1]: 14.080 µM
IC90 [4, 6]: 0.765 µM

CCC1=C(C)c2cc3[nH]c(cc4nc(c(C)c5cc(C)c(cc1n2)[nH]5)[C@@H](CCCO)[C@@H]4C)c(C)c3CO[C@@H]1O[C@H](CO)[C@@H](O)[C@H](O)[C@H]1O [Compound 35, phyllochlorin 3-hydroxypropyl-13-hydroxymethyl-β-D-glucoside ether]
Dark toxicity μM (IC10) [1]: 1.651 µM
IC90 [4, 6]: 0.0467 µM

CCC1=C(C)c2cc3[nH]c(cc4nc(c(C)c5cc(C)c(cc1n2)[nH]5)[C@@H](CCC(=O)OC)[C@@H]4C)c(C)c3COC(=O)NCCCCCC[P+](c1ccccc1)(c1ccccc1)c1ccccc1 [Compound 39, phyllochlorin methyl ester 13-(6-(triphenylphosphonium bromide)hexyl)carbamate]
Dark toxicity μM (IC10) [1]: 6.403 µM
IC90 [4, 7]: 0.0018 µM

CCC1=C(C)c2cc3[nH]c(cc4nc(c(C)c5cc(C)c(cc1n2)[nH]5)[C@@H](CCC(=O)OC)[C@@H]4C)c(C)c3COC(=O)NCCCOCCC[P+](c1ccccc1)(c1ccccc1)c1ccccc1 [Compound 40, phyllochlorin methyl ester 13-(N-(3-(3-triphenylphosphoniumpropoxy)propyl)chloride)carbamate]
Dark toxicity μM (IC10) [5]: 0.6145 µM
IC90 [4, 7]: 0.0008 µM

CCC1=C(C)c2cc3[nH]c(cc4nc(c(C)c5cc(C)c(cc1n2)[nH]5)[C@@H](CCC(=O)N(C)CCOCCOCCOC)[C@@H]4C)c(C)c3CO [Compound 42, phyllochlorin 13-hydroxymethyl N-methyl-N-3,6,9-trioxadecyl propylamide]
Dark toxicity μM (IC10) [1]: 4.252 µM
IC90 [4, 7]: 0.245 µM

CCC1=C(C)c2cc3[nH]c(cc4nc(c(C)c5cc(C)c(cc1n2)[nH]5)[C@@H](CCC(=O)N(C)CCOCCOCCOC)[C@@H]4C)c(C)c3COC(=O)NCCCCCC[P+](c1ccccc1)(c1ccccc1)c1ccccc1 [Compound 43, phyllochlorin 13-(6-(triphenylphosphonium bromide)hexyl)carbamate N-methyl-N-3,6,9-trioxadecyl propylamide]
Dark toxicity μM (IC10) [1]: 0.5889 µM
IC90 [4, 7]: 0.0042 µM

CCC1=C(C)c2cc3[nH]c(cc4nc(c(C)c5cc(C)c(cc1n2)[nH]5)[C@@H](CCC(=O)OC)[C@@H]4C)c(C)c3COC(=O)NCCC[P+](c1ccccc1)(c1ccccc1)c1ccccc1 [Compound 45, phyllochlorin methyl ester 13-(N-(3-triphenylphosphoniumpropyl)bromide)carbamate]
Dark toxicity μM (IC10) [5]: 3.977 µM
IC90 [4, 7]: 0.0012 µM

CCC1=C(C)c2cc3[nH]c(cc4nc(c(C)c5cc(C)c(cc1n2)[nH]5)[C@@H](CCC(=O)OC)[C@@H]4C)c(C)c3COC(=O)NCC[P+](c1ccccc1)(c1ccccc1)c1ccccc1 [Compound 46, phyllochlorin methyl ester 13-(N-(2-triphenylphosphoniumethyl)bromide)carbamate]
Dark toxicity μM (IC10) [1]: 1.277 µM
IC90 [4, 7]: 0.0014 µM

CCC1=C(C)c2cc3[nH]c(cc4nc(c(C)c5cc(C)c(cc1n2)[nH]5)[C@@H](CCC(=O)N(C)CCOC)[C@@H]4C)c(C)c3COC(=O)NCCC[P+](c1ccccc1)(c1ccccc1)c1ccccc1 [Compound 50, phyllochlorin N-methyl-N-(2-methoxy)ethyl propylamide 13-(N-(3-triphenylphosphoniumpropyl)bromide)carbamate]
Dark toxicity μM (IC10) [5]: 0.470 µM
IC90 [4, 7]: 0.0016 µM

CCC1=C(C)c2cc3[nH]c(cc4nc(c(C)c5cc(C)c(cc1n2)[nH]5)[C@@H](CCC(=O)NCCOC)[C@@H]4C)c(C)c3COC(=O)NCCC[P+](c1ccccc1)(c1ccccc1)c1ccccc1 [Compound 52, phyllochlorin N-(2-methoxy)ethyl propylamide 13-(N-(3-triphenylphosphoniumpropyl)bromide)carbamate]
Dark toxicity μM (IC10) [5]: 1.060 µM
IC90 [4, 7]: 0.0052 µM

CCOC(=O)CC[C@@H]1c2nc(cc3[nH]c(cc4nc(cc5[nH]c(cc5C)c2C)C(CC)=C4C)c(COC(=O)NCCC[P+](c2ccccc2)(c2ccccc2)c2ccccc2)c3C)[C@H]1C [Compound 53, phyllochlorin ethyl ester 13-(N-(3-triphenylphosphoniumpropyl)bromide)carbamate]
Dark toxicity μM (IC10) [5]: 2.240 µM
IC90 [4, 7]: 0.00077 µM
greater phototoxicity compared to Talaporfin sodium ([4]; SKOV3, IC90): 5 orders of magnitude

C=Cc1c(C)c2cc3nc(c(CC(=O)N[C@@H](CC(=O)O)C(=O)O)c4[nH]c(cc5nc(cc1[nH]2)C(C)=C5CC)c(C)c4C(=O)O)[C@@H](CCC(=O)O)[C@@H]3C [Talaporfin sodium, reference compound]
Dark toxicity μM (IC10) [5]: 11.10 µM

phyllochlorin 13-(N-(3-(3-triphenylphosphoniumpropoxy)propyl)chloride)carbamate N-methyl-N-3,6,9-trioxadecyl propylamide [Compound 44]
Dark toxicity μM (IC10) [5]: 0.5603 µM
IC90 ([4]; 660 nm LED panel 50 mW/cm^2 for 5 mins (15 J/cm^2), read-out: Phototoxicity μM (IC90), measured by LED): 0.0057 µM

phyllochlorin methyl ester 3-triphenylphosphonium bromide propyl ether [Compound 21]
Dark toxicity μM (IC10) [5]: 3.801 µM
IC90 ([4]; 660 nm laser 50 mW/cm^2 for 5 mins (15 J/cm^2), read-out: Phototoxicity μM (IC90)): 0.012 µM
